According to PMC4860888 (Theranostics, 2016):

Columns and labels:
HDAC = conditions: cited from earlier work
[1] = system: AK7 murine mesothelioma cells; type: in vivo, C57Bl/6 mice; conditions: decitabine 4 µg/g i.p. days 7 and 9

Structure (SMILES) | Fold less potent than (R)-trichostatin A (HDAC) | Anti-tumor effect by itself [1]
CC(C=CC(=O)NO)=C[C@H](C)C(=O)c1ccc(N(C)C)cc1 [(S)-isomer] | 70 fold | –
Nc1ncn([C@H]2C[C@H](O)[C@@H](CO)O2)c(=O)n1 [decitabine] | – | no anti-tumor effect
